The subject of one data set is CYP3A4. Kind of data set: Human CYP 3A4 induction assay (mRNA, cryopreserved human hepatocytes). The format is in vitro ADME. As for the experimental part: Human CYP 3A4 Induction Assay
Cryopreserved human hepatocytes were seeded in 96-well collagen coated plates at 70,000 cells per well in hepatocyte plating media (HPM, final concentrations: 1× Dulbecco's Modified Eagle's Medium, 0.1 μM dexamethasone, 10% fetal bovine serum, 1× ITS, 1×PSG) followed by incubation at 37° C. under 5% CO2 and 90% relative humidity for 2 days to allow hepatocytes to form a confluent layer. On Day 3, hepatocytes were treated with either test compound or rifampin (20 μM, positive control for CYP3A induction) prepared in hepatocyte incubation media ((HIM, final concentrations: 1× William's Medium E, 0.1 μM dexamethasone, 1×ITS, 1×PSG). Treatment was performed for 72 hours with either 2 concentrations (2 μM or 10 μM) or a range of concentrations (0.001 μM to 100 μM) of the test compound to obtain full dose-response curve. Fresh media containing the relevant concentrations of the test compound was replaced every day until the samples were processed. After 72 hours of incubation, samples were processed for mRNA analysis using bDNA technology using manufacturer's instructions (Affymetrix, Fremont, Calif.). Cell viability was tested at the end of the experiment using MTT assay kit (Roche Diagnostics, Basel, Switzerland). Data was analyzed and presented as percent of control (POC) and Emax and EC50 obtained when appropriate according to guidance from Center for Drug Evaluation and Research (CDER), 2006, Guidance for Industry, Drug Interaction Studies—Study Design, Data Analysis, and Implications for Dosing and Labeling.
Cryopreserved human hepatocytes were seeded in 96-well collagen coated plates at 70,000 cells per well in hepatocyte plating media (HPM, final concentrations: 1× Dulbecco's Modified Eagle's Medium, 0.1 μM dexamethasone, 10% fetal bovine serum, 1×ITS, 1×PSG) followed by incubation at 37° C. under 5% CO2 and 90% relative humidity for 2 days to allow hepatocytes to form a confluent layer. On Day 3, hepatocytes were treated with either test compound or rifampin (20 μM, positive control for CYP3A induction) prepared in hepatocyte incubation media ((HIM, final concentrations: 1× William's Medium E, 0.1 μM dexamethasone, 1×ITS, 1×PSG). Treatment was performed for 72 hours with either 2 concentrations (2 μM or 10 μM) or a range of concentrations (0.001 μM to 100 μM) of the test compound to obtain full dose-response curve. Fresh media containing the relevant concentrations of the test compound was replaced every day until the samples were processed. After 72 hours of incubation, samples were processed for mRNA analysis using bDNA technology using manufacturer's instructions (Affymetrix, Fremont, Calif.). Cell viability was tested at the end of the experiment using MTT assay kit (Roche Diagnostics, Basel, Switzerland). Data was analyzed and presented as percent of control (POC) and Emax and EC50 obtained when appropriate, as described in Halladay, J. et al, 2012, An “all-inclusive” 96-well cytochrome P450 induction method: Measuring enzyme activity, mRNA levels, protein levels, and cytotoxicity from one well using cryopreserved human hepatocytes, Pharmacological and Toxicological Methods, 66:270-275.
The cytochrome P450 (CYP) is a well-known superfamily of enzymes that are responsible for the oxidative and reductive metabolic transformation of medications used in clinical practice. In addition, the CYP enzymes are commonly associated with causing many clinically relevant drug-drug interactions. Of the CYP enzymes, CYP3A4 is not only the most prevalent CYP enzyme in the liver and intestine, but is responsible for metabolism and elimination of approximately 50% of marketed drugs. In addition, CYP3A4 activity can be induced (or increased) or inhibited (decreased) in response to administration of certain drugs, thereby affecting concentrations of their own or certain concomitant drugs present in the body. […]

Another data set concerns the target T1, Human NaV1.7 (Homo sapiens, UniProt Q15858).
T1 construct: expressed in transfected cells; host or cells: Spiking HEK cells (without Kir2.1 transfection)
Kind of data set: Ionworks Barracuda (IWB) automated patch clamp assay. The format is cell-based. Particulars: human NaV1.7 currents in HEK cells, population patch clamp, state- and use-dependent voltage protocol; read-out: hNaV1.7 IWB-U IC50. The method, then:
Ionworks Barracuda (IWB) Automated Patch Clamp Assay (Same Protocol for Both Hu Man and Mouse)
Human NaV1.7 currents were recorded in population patch-clamp mode with the IWB automated electrophysiology system (Molecular Devices, LLC, Sunnyvale, Calif.). Spiking HEK cells (without Kir2.1 transfection) were cultured and prepared for recordings as previously described for IonWorks Quattro testing^1. The external solution consisted of the following (in mM): NaCl 140, KCl 5, CaCl2 2, MgCl2 1, HEPES 10, and glucose 11, pH 7.4, with N-methyl-D-glucamine at 320 mOsmol. […] From a holding potential of −110 mV, currents were elicited by a train of 26 depolarizations of 150 ms duration to −20 mV at a frequency of 5 Hz. Cells were then clamped to −20 mV for a period of 4 minutes in the presence of a single concentration of test compound. Following this compound incubation period, cells were clamped to −110 mV for three seconds to recover unbound channels and put through the same 26 pulse voltage protocol as above. Peak inward current during the 26th pulse to −20 mV in the presence of compound was divided by the peak inward current evoked by the 26th pulse to −20 mV in the absence of compound to determine percent inhibition. Concentration-response curves of percent inhibition as a function of concentration were generated to calculate IC50 values as described in Kornecook, T. J.; Yin, R.; Altmann, S.; et al. Pharmacologic Characterization of AMG8379, a Potent and Selective Small Molecule Sulfonamide Antagonist of the Voltage-Gated Sodium Channel NaV1. 7.
The potency of the compounds of the present invention were evaluated on human NaV1.7 channels using the above described IonWorks Barracuda automated electrophysiology platform that evaluates the ability of compounds to block sodium conductance through NaV1.7 channels. A voltage-protocol that prosecutes both state-dependent as well as use-dependent inhibition was used as these modes of action are thought to be more relevant for the native state of NaV1.7 channels in pain sensing neurons in vivo.
A general note: In patch-clamp work, channel activity is measured electrically.

The mark [1] stands for this setting: human hepatocytes, 10 uM test compound, 72 hours, mRNA, percent of control (rifampin positive control).

pIC50: −log10 of the molar value.

T1 sequence (Q15858 whole entry): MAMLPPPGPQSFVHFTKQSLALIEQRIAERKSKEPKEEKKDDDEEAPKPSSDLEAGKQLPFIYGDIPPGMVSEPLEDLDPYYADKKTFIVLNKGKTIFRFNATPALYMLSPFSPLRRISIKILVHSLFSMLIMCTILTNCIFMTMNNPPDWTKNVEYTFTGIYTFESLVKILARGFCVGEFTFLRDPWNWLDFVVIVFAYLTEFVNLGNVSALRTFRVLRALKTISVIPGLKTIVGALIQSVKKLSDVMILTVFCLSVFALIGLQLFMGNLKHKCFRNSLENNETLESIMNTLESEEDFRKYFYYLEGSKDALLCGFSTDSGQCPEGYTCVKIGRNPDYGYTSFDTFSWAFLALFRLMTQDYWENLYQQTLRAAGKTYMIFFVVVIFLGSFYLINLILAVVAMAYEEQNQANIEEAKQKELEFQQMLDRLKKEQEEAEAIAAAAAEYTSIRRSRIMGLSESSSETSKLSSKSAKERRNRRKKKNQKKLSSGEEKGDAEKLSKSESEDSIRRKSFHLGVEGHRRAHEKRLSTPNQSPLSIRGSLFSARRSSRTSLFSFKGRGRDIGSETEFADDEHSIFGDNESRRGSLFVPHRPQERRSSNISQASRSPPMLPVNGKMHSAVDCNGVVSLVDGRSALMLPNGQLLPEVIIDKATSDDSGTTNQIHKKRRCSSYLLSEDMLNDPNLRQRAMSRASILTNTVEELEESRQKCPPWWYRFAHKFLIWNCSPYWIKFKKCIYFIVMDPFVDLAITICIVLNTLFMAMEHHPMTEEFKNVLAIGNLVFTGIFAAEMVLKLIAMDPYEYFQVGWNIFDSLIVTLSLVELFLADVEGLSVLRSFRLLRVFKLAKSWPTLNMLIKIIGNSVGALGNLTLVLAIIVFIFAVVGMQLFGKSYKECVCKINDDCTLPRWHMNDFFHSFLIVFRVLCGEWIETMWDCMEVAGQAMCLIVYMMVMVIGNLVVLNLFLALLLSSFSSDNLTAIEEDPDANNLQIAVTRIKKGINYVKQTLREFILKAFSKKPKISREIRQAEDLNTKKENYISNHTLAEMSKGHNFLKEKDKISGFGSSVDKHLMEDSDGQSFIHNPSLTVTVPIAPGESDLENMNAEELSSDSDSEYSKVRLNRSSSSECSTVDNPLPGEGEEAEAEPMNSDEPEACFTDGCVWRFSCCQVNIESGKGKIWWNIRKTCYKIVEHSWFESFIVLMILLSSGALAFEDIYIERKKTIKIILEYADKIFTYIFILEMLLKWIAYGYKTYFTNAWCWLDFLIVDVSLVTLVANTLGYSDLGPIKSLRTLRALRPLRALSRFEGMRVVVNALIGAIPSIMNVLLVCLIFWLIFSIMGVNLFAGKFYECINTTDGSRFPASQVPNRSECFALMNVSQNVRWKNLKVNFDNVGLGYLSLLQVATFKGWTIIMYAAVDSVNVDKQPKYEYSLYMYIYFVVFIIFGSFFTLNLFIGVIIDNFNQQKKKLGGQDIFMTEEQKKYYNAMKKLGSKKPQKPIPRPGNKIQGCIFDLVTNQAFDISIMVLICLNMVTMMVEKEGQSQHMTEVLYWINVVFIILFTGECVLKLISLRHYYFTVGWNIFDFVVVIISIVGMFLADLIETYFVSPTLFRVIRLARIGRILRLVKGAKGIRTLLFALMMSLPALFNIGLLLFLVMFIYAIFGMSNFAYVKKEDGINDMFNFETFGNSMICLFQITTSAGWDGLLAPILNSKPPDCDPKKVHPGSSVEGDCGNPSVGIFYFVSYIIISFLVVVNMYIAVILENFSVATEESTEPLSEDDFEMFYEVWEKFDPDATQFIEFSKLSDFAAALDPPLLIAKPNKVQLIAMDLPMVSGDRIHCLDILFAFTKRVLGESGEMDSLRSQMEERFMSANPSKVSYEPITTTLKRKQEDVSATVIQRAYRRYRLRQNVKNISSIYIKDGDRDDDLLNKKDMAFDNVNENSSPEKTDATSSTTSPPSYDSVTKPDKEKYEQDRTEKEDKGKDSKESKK

As a reminder, the pIC50 is −log10 of the IC50, conventionally taken in molar units. As for `COc1cc([C@@H]2C[C@H]2C(F)(F)F)c(C)cc1-n1c(=O)ccc2cc(S(=O)(=O)Nc3ccon3)ccc21` (atropisomer, axis not shown; (P)) [Example 26, (P)-N-(isoxazol-3-yl)-1-(2-methoxy-5-methyl-4-((1R,2R)-2-(trifluoromethyl)cyclopropyl)phenyl)-2-oxo-1,2-dihydroquinoline-6-sulfonamide], the “CYP3A4 mRNA Induct Hu 10 uM POC” value with CYP3A4 (setting [1]) was found to be 35.39%. Besides, the negative logarithm of the IC50 (pIC50) at Human NaV1.7 was 7.72.

As for `COc1cc([C@@H]2C[C@H]2C(F)(F)F)c(F)cc1-n1c(=O)ccc2cc(S(=O)(=O)Nc3nncs3)ccc21` (atropisomer, axis not shown; (P)) [Example 40, (P)-1-(5-fluoro-2-methoxy-4-((1R,2R)-2-(trifluoromethyl)cyclopropyl)phenyl)-2-oxo-N-(1,3,4-thiadiazol-2-yl)-1,2-dihydroquinoline-6-sulfonamide], the negative-log IC50 (pIC50) at Human NaV1.7 was 8.10.

In the case of `COc1cc([C@@H]2C[C@H]2C(F)(F)F)c(Cl)cc1-n1c(=O)ccc2cc(S(=O)(=O)Nc3cccnn3)ccc21` (atropisomer, axis not shown; (P)) [Example 14, (P)-1-(5-chloro-2-methoxy-4-((1R,2R)-2-(trifluoromethyl)cyclopropyl)phenyl)-2-oxo-N-(pyridazin-3-yl)-1,2-dihydroquinoline-6-sulfonamide], in the data set on CYP3A4 (setting [1]), the “CYP3A4 mRNA Induct Hu 10 uM POC” value is 46.59%. Also, the pIC50 on Human NaV1.7 was 7.72.

`COc1cc([C@@H]2C[C@H]2C(F)(F)F)c(F)cc1-n1c(=O)ccc2cc(S(=O)(=O)Nc3ccon3)c(F)cc21` (single isomer, unassigned) [Example 45]: the “CYP3A4 mRNA Induct Hu 10 uM POC” value with CYP3A4 (setting [1]) amounted to 24.57%. At Human NaV1.7, the pIC50 is 8.10.

Take `COc1cc([C@H]2C[C@@H]2COC(F)(F)F)c(F)cc1-n1c(=O)ccc2cc(S(=O)(=O)Nc3ccon3)ccc21` (atropisomer, axis not shown; (P)) [Example 33, (P)-1-(5-fluoro-2-methoxy-4-((1S,2S)-2-((trifluoromethoxy)methyl)cyclopropyl)phenyl)-N-(isoxazol-3-yl)-2-oxo-1,2-dihydroquinoline-6-sulfonamide]: in the data set on CYP3A4 (setting [1]), the “CYP3A4 mRNA Induct Hu 10 uM POC” value stood at 139.9%. The pIC50 at Human NaV1.7 is 8.40.

For `COc1cc([C@@H]2C[C@H]2COC(F)(F)F)c(F)cc1-n1c(=O)ccc2cc(S(=O)(=O)Nc3ccon3)ccc21` (atropisomer, axis not shown; (P)) [Example 32, (P)-1-(5-fluoro-2-methoxy-4-((1R,2R)-2-((trifluoromethoxy)methyl)cyclopropyl)phenyl)-N-(isoxazol-3-yl)-2-oxo-1,2-dihydroquinoline-6-sulfonamide], in the data set with CYP3A4 (setting [1]), the “CYP3A4 mRNA Induct Hu 10 uM POC” value came out at 64.54%. Also, on Human NaV1.7, the negative-log IC50 (pIC50) is 8.05.

Take `COc1cc([C@H]2C[C@H]2C2CC2)c(F)cc1-n1c(=O)ccc2cc(S(=O)(=O)Nc3ccon3)ccc21` (atropisomer, axis not shown; (P)) [Example 30, (P)-1-(4-((1S,2S)-[1,1′-bi(cyclopropan)]-2-yl)-5-fluoro-2-methoxyphenyl)-N-(isoxazol-3-yl)-2-oxo-1,2-dihydroquinoline-6-sulfonamide]: the “CYP3A4 mRNA Induct Hu 10 uM POC” value in the data set with CYP3A4 (hepatocytes) worked out at 60.34%. In addition, at Human NaV1.7, the pIC50 is 7.59.
